How the values were obtained:
Assay in all cases: relative viability (nuclei count vs DMSO), 5 days (fraction); higher = more cells survive
Lestaurtinib + Dasatinib = compound: C[C@]12O[C@H](C[C@]1(O)CO)n1c3ccccc3c3c4c(c5c6ccccc6n2c5c31)CNC4=O [Lestaurtinib] + Cc1nc(Nc2ncc(C(=O)Nc3c(C)cccc3Cl)s2)cc(N2CCN(CCO)CC2)n1 [Dasatinib] (partner 0.075 µM)
Summary of the method: (§1)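 Lung cancer cell lines were seeded in 1536-well plates and dosed by pin tool the next day, with either a single drug or a fixed anchor-drug dose combined with five library-drug doses (not always all listed) spaced in √10 steps. Five days later, one step fixed the cells and stained their nuclei (final 0.05% Triton X-100, 1% formaldehyde, 1 ug/ml Hoechst), and nuclei were counted on 4× images. Relative viability is the nuclei count in treated wells divided by the count in vehicle wells, and each value is the median of duplicate plates.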

Lestaurtinib + Foretinib = compound: C[C@]12O[C@H](C[C@]1(O)CO)n1c3ccccc3c3c4c(c5c6ccccc6n2c5c31)CNC4=O [Lestaurtinib] + COc1cc2c(Oc3ccc(NC(=O)C4(C(=O)Nc5ccc(F)cc5)CC4)cc3F)ccnc2cc1OCCCN1CCOCC1 [Foretinib] (partner 0.25 µM)
Summary of the method: as §1

TPCA-1 + AZD7762 = compound: C1=CC(=CC=C1C2=CC(=C(S2)NC(=O)N)C(=O)N)F [TPCA-1] + NC(=O)Nc1cc(-c2cccc(F)c2)sc1C(=O)N[C@H]1CCCNC1 [AZD7762] (partner 0.2 µM)
Summary of the method: as §1

[1] = compound: C1/C(=C\C2=CC=CS2)/C(=O)/C(=C/C3=CC=CS3)/C1 + Nc1nc2[nH]cc(CCc3ccc(C(=O)N[C@@H](CCC(=O)O)C(=O)O)cc3)c2c(=O)[nH]1 [Pemetrexed] (partner 0.2 µM)
Summary of the method: as §1

Cell Line | relative viability (Lestaurtinib + Dasatinib; first compound 0.005 µM) | relative viability (Lestaurtinib + Dasatinib; first compound 0.01581 µM) | relative viability (Lestaurtinib + Dasatinib; first compound 0.05 µM) | relative viability (Lestaurtinib + Dasatinib; first compound 0.1581 µM) | relative viability (Lestaurtinib + Dasatinib; first compound 0.5 µM) | relative viability (Lestaurtinib + Foretinib; first compound 0.005 µM) | relative viability (Lestaurtinib + Foretinib; first compound 0.01581 µM) | relative viability (Lestaurtinib + Foretinib; first compound 0.05 µM) | relative viability (Lestaurtinib + Foretinib; first compound 0.1581 µM) | relative viability (Lestaurtinib + Foretinib; first compound 0.5 µM) | relative viability (TPCA-1 + AZD7762; first compound 0.04 µM) | relative viability (TPCA-1 + AZD7762; first compound 0.1265 µM) | relative viability (TPCA-1 + AZD7762; first compound 0.4 µM) | relative viability (TPCA-1 + AZD7762; first compound 1.265 µM) | relative viability (TPCA-1 + AZD7762; first compound 4 µM) | relative viability ([1]; first compound 0.2 µM) | relative viability ([1]; first compound 0.6325 µM) | relative viability ([1]; first compound 2 µM) | relative viability ([1]; first compound 6.325 µM) | relative viability ([1]; first compound 20 µM)
H3255 | 0.291 | 0.428 | 0.299 | 0.342 | 0.323 | 0.981 | 0.888 | 0.898 | 0.703 | 0.419 | 0.925 | 0.835 | 0.863 | 0.688 | 0.694 | 0.573 | 0.594 | 0.61 | 0.528 | 0.602
HCC-15 | 0.73 | 0.702 | 0.485 | 0.38 | 0.169 | 1.11 | 1.13 | 0.989 | 0.744 | 0.139 | 1.31 | 1.09 | 1.21 | 1.28 | 1.15 | 0.221 | 0.203 | 0.218 | 0.214 | 0.217
ChaGo-K-1 | 0.654 | 0.601 | 0.552 | 0.547 | 0.292 | 0.946 | 1.04 | 0.828 | 0.788 | 0.373 | 0.869 | 0.883 | 0.904 | 0.8 | 0.522 | 0.259 | 0.26 | 0.278 | 0.224 | 0.25
EMC-BAC-2 | 0.291 | 0.2 | 0.255 | 0.25 | 0.19 | 0.908 | 0.737 | 0.78 | 0.382 | 0.29 | 1.15 | 1.09 | 1.27 | 1.03 | 0.72 | 0.449 | 0.467 | 0.443 | 0.391 | 0.447
LCLC-103H | 0.474 | 0.464 | 0.405 | 0.325 | 0.224 | 0.752 | 0.848 | 0.547 | 0.485 | 0.261 | 0.896 | 0.84 | 0.824 | 0.617 | 0.8 | 0.477 | 0.444 | 0.447 | 0.433 | 0.47
LK-2 | 0.296 | 0.255 | 0.241 | 0.275 | 0.158 | 1.16 | 1.19 | 0.683 | 0.774 | 0.309 | 0.593 | – | 0.53 | 0.392 | 0.131 | 0.273 | – | 0.354 | 0.282 | 0.276
NCI-H2405 | 0.199 | 0.211 | 0.186 | 0.196 | 0.17 | 1.11 | 1.08 | 1.05 | 0.805 | 0.384 | 0.859 | 0.738 | 0.877 | 0.79 | 0.648 | 1.08 | 0.96 | 1.2 | 1.01 | 1.04
NCI-H2087 | 0.843 | 0.81 | 0.494 | 0.724 | 0.319 | 1.13 | 1.31 | 0.848 | 0.703 | 0.266 | 1.24 | 1.3 | 1.34 | 1.29 | 0.758 | 0.635 | 0.7 | 0.621 | 0.529 | 0.639
NCI-H460 | 0.505 | 0.583 | 0.505 | 0.388 | 0.247 | 0.96 | 1.11 | 0.951 | 1.28 | 0.9 | 0.676 | 0.684 | 0.738 | 0.622 | 0.731 | 0.0622 | 0.0731 | 0.0616 | 0.0608 | 0.0583
LOU-NH91 | 0.581 | 0.575 | 0.415 | 0.397 | 0.372 | 0.921 | 0.842 | 0.844 | 0.651 | 0.459 | 0.781 | 0.719 | 0.724 | 0.68 | 0.697 | 0.331 | 0.401 | 0.316 | 0.37 | 0.375
NCI-H1651 | 0.395 | 0.557 | 0.393 | 0.443 | 0.248 | 0.85 | 0.8 | 0.844 | 0.865 | 0.53 | 0.486 | 0.439 | 0.462 | 0.431 | 0.401 | 0.582 | 0.666 | 0.778 | 0.495 | 0.58
NCI-H441 | 0.521 | 0.58 | 0.431 | 0.548 | 0.482 | 1.07 | 1.02 | 0.795 | 0.933 | 0.277 | 1.21 | 0.915 | 1.19 | 1.04 | 1 | 0.273 | 0.261 | 0.264 | 0.27 | 0.264

— the supplement of paper PMC10307832
